Data from ChEMBL document CHEMBL1201862, “PubChem BioAssay data set” (2004).
Active and inactive are the calls of the source.

How the values were obtained:
[1] = Luminescence Cell-Based Dose Retest to Confirm Inhibitors of Cancer Stem Cells. [Related pubchem assays (depositor defined):AID2717, AID2721]; assay type: functional; details: Homo sapiens
[2] = viability loss of HMLE_sh_eGFP cells – cell-based, luminescence, counter-screen for HMLE_sh_ECad selective toxicity project, dose response (AID 463074); assay type: functional, Homo sapiens;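 note: HMLE human mammary epithelial cells expressing control shRNA against eGFP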
CAAX prenyl protease 1 = CAAX prenyl protease 1 (Saccharomyces cerevisiae S288c, UniProt P47154); assay: yeast CAAX protease Ste24 inhibition – biochemical, S. cerevisiae, plate reader, cherry-pick, dose response (AID 488815)
[3] = potency of ADAM10 substrate cleavage blockers – biochemical, QFRET, dose response (AID 743254);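 note: ADAM10 enzyme with the DM2 quenched FRET peptide as substrate; EDANS fluorescence gain as the protease cuts the substrate; inhibitor potency against ADAM10 proteolytic activity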
CAAX prenyl protease 2 = CAAX prenyl protease 2 (Homo sapiens, UniProt Q9Y256); assay: inhibition of Ras-converting CAAX protease Rce1 – biochemical, yeast membranes, quenched-peptide fluorescence, cherry-pick, dose response (AID 588849)
[4] = target: Disintegrin and metalloproteinase domain-containing protein 17 (Homo sapiens, UniProt P78536); assay: inhibition of ADAM17 substrate cleavage – biochemical, quenched FRET substrate, counter-screen for ADAM10 exosite inhibitor project, dose response (AID 743253)
[5] = Trypanosoma cruzi growth suppression in host cells – NIH3T3 host cells, beta-gal luminescence, confirmation (AID 2044); assay type: functional, cell-based;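 note: intracellular parasites grown in NIH/3T3 mouse fibroblasts as host cells; luminescent beta-galactosidase reporter signal from transgenic T. cruzi replicating inside host cells; inhibitors lower the luminescence signal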
[6] = NIH3T3 cell viability loss – ATP luminescence, mouse fibroblasts, counter-screen, dose response (AID 2010); assay type: functional, cell-based;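 note: cells exposed to compound for about 90 hours before reading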
[7] = target: Lysine-specific demethylase 4A (Homo sapiens, UniProt O75164); assay: inhibition of JMJD2A H3K9me3 demethylation – biochemical, DELFIA europium, cherry-picked samples, selectivity assay for GASC-1 inhibitor project, dose response (AID 488840)
Cytochrome P450 2D6 = Cytochrome P450 2D6 (Homo sapiens, UniProt P10635);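 note: CYP2D6 member of a cytochrome P450 panel assay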
Cytochrome P450 2C19 = Cytochrome P450 2C19 (Homo sapiens, UniProt P33261); assay: Cytochrome panel assay with activity outcomes. Panel member name: p450-cyp2c19 Compounds with AC50 equal or less than 10 uM are considered active; assay type: functional
[8] = target: T1, G-protein coupled receptor 35 (Homo sapiens, UniProt Q9HC97); assay: SAR Analysis for the identification of Selective Antagonists of ERK1/2 Activity in GPR35-Overexpressing U2OS Cells. [Related pubchem assays: 2079, 2058 ]; assay type: functional, cell-based
[9] = system: Streptococcus sp. 'group A'; assay: Streptococcus pyogenes SK(-)GAS viability under kanamycin – luminescence, BacTiterGlo, confirmation, counter-screen for streptokinase expression inhibitor project, dose response (AID 1900); assay type: functional, organism-based
[10] = target: T2, Tyrosine-protein phosphatase non-receptor type 22 (Homo sapiens, UniProt Q9Y2R2); assay: SAR LYP1 Fluorescent Assay using OMFP substrate for In Vitro dose response studies - Set 3. [Related pubchem assays (depositor defined):AID1779, AID1784, AID2140, AID2686]; assay type: functional
T2 sequence (Q9Y2R2 whole entry): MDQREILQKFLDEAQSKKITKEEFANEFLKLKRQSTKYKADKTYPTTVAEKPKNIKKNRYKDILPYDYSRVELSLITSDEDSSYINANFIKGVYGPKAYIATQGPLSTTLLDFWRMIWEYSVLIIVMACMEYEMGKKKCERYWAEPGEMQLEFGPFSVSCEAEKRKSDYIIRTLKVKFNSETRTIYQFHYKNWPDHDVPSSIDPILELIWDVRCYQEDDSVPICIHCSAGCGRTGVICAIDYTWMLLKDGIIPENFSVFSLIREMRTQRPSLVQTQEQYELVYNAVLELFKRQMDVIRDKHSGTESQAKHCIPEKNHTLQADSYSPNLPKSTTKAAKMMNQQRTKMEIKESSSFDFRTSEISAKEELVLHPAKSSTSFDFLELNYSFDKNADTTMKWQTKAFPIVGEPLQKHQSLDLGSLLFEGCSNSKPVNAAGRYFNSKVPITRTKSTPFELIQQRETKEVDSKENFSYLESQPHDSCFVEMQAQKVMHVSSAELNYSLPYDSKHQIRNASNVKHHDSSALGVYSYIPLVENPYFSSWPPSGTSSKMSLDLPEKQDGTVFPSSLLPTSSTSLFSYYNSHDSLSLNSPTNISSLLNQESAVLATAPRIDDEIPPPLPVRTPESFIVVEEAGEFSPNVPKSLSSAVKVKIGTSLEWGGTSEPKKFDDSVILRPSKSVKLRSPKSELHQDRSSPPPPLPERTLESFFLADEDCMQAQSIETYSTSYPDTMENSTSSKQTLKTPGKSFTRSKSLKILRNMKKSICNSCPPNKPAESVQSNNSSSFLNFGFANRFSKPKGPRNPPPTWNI

Streptococcus = assay: GAS UMAA2166 growth inhibition – luminescence, BacTiterGlo, counter-screen for streptokinase expression inhibitor project, dose response (AID 1915); assay type: functional, organism-based;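 note: potency for reduction of bacterial viability or growth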
[11] = target: T1, G-protein coupled receptor 35; assay: inhibition of zaprinast-stimulated GPR35 beta-arrestin translocation – imaging, U2OS, beta-arrestin-GFP, zaprinast agonist, primary screen (AID 2058); assay type: functional;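 note: antagonist potency meaning inhibition of agonist-induced arrestin redistribution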
[12] = alpha-synuclein stem-loop luciferase translation blockers – H4 neuroglioma cells, luminescence, confirmation (AID 1988); assay type: functional, cell-based
[13] = luciferase reporter signal suppression in cells – H4 neuroglioma cells, luminescence, dose response (AID 1990); assay type: functional, cell-based
Streptokinase A = target: T3, Streptokinase A (Streptococcus pyogenes serotype M1, UniProt P10520); assay: viability-normalized secreted streptokinase activity reduction – plasminogen activation absorbance, OD405, dose response (AID 1914); assay type: functional, Streptococcus pyogenes M1 GAS;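 note: secreted streptokinase activity via plasminogen activation per viability signal from cell pellet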
T3 sequence (P10520 whole entry): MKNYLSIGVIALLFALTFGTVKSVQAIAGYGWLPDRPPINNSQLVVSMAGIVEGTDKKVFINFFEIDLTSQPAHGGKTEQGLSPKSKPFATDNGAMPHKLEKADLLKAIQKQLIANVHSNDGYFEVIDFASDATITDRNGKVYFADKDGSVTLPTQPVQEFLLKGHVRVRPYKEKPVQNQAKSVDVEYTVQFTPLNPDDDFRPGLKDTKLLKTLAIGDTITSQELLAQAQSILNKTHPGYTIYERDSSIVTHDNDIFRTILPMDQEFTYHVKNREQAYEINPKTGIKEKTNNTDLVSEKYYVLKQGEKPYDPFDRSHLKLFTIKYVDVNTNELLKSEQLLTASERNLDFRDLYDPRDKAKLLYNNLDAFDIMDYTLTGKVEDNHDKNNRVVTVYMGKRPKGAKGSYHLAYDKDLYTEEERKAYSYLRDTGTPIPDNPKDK

[14] = Luminescence Cell-Based Dose Response HTS to Identify Inhibitors of 5'UTR Stem-Loop Driven Prion Protein mRNA Translation in H4 Neuroglioblastoma Cells. [Related pubchem assays: 1827 (Project Summary), 1813 (Primary HTS)]; assay type: functional
[15] = target: T4, Tyrosine-protein phosphatase non-receptor type 7 (Homo sapiens, UniProt P35236); assay: inhibition of hematopoietic tyrosine phosphatase HePTP – biochemical, set 2, SAR follow-up (AID 449736); assay type: functional
T4 sequence (P35236 whole entry): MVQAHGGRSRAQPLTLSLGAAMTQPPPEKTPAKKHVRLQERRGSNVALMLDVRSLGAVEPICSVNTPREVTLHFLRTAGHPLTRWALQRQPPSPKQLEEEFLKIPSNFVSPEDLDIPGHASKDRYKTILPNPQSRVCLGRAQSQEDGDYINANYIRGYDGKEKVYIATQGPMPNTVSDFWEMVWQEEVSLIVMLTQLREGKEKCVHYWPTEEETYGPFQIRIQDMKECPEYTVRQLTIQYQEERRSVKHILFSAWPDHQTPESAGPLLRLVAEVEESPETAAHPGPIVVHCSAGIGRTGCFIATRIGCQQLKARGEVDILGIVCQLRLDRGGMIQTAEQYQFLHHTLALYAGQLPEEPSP

[16] = target: Tyrosine-protein phosphatase non-receptor type 12 (Homo sapiens, UniProt Q05209); assay: SAR Selectivity Analysis of small molecule inhibitors of PEST using pCAP in a fluorescence assay. [Related pubchem assays (depositor defined):AID1779, AID1784, AID2135]; assay type: functional
[17] = target: G-protein coupled receptor 55 (Homo sapiens, UniProt Q9Y2T6); assay: blockers of GPR55 signalling, imaged – imaging, image-based, counter-screen for GPR35 antagonist project, SAR follow-up (AID 2397); assay type: functional
[18] = target: Sphingosine 1-phosphate receptor 2 (Homo sapiens, UniProt O95136); assay: Dose Response Cell Based Assay for Antagonists of the S1P2 Receptor. [Related pubchem assays: 856, 736 ]; assay type: functional
[19] = target: T5, Nucleotide-binding oligomerization domain-containing protein 1 (Homo sapiens, UniProt Q9Y239); assay: blockers of NOD1 pathway activity – revised, SAR follow-up (AID 2333); assay type: functional
T5 sequence (Q9Y239 whole entry): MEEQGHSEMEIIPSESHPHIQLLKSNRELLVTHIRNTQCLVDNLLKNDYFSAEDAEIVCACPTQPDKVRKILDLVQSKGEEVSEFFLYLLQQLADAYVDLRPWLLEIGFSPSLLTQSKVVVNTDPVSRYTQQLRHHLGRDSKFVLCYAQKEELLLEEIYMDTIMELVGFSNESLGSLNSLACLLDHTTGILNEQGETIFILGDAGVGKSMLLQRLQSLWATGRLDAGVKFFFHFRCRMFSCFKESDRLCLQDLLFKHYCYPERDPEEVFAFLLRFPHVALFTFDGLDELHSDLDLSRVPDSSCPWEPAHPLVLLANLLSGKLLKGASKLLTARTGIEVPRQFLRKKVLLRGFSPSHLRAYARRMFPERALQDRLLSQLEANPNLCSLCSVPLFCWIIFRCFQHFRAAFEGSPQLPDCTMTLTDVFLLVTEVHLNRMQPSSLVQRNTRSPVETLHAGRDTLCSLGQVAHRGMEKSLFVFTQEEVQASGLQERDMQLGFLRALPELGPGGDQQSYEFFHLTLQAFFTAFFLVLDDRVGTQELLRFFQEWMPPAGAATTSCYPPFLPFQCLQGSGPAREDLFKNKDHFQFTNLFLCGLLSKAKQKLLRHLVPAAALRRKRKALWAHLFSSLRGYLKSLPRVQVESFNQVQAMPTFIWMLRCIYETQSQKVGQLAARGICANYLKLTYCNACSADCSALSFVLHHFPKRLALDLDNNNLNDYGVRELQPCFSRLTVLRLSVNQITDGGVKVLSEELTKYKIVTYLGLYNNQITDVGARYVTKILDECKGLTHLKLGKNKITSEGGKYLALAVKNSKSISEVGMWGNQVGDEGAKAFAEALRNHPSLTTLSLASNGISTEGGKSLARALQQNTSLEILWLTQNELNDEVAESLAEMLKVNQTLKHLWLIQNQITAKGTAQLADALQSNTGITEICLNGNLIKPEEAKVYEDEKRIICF

Cytochrome P450 3A4 = Cytochrome P450 3A4 (Homo sapiens, UniProt P08684);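 note: CYP3A4 tested as one member of a cytochrome P450 panel screen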
HEK293 [20] = assay: cells; details: Homo sapiens
Tumor necrosis factor [21] = target: T6, Tumor necrosis factor (Homo sapiens, UniProt P01375); assay: analog potency on TNFa NF-kB signaling – cell-based, revised, SAR follow-up (AID 2337); assay type: functional
[22] = HEK-293T viability loss after treatment – luminescence, T-cell screen hits, cytotoxicity control for TCR NF-kB inhibitor project, dose response (AID 489026); assay type: functional, cell-based;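 note: cells exposed to compound about 14 hours before the viability readout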
[23] = target: Nucleotide-binding oligomerization domain-containing protein 2 (Homo sapiens, UniProt Q9HC29); assay: inhibition of MDP-driven NOD2 NF-kB reporter – cell-based, set 3, SAR follow-up (AID 2799); assay type: functional
Tumor necrosis factor [24] = target: T6, Tumor necrosis factor; assay: analog potency on TNFa NF-kB signaling – cell-based, set 3, SAR follow-up (AID 2801); assay type: functional
HEK293 [25] = assay: SAR analysis of compounds that are cytotoxic to HEK293 - Set 3. [Related pubchem assays (depositor defined):AID1575, AID1578, AID1848, AID1849, AID2001, AID2333, AID2334, AID2335, AID2337, AID2469]; assay type: functional, cell-based; details: Homo sapiens
[26] = target: T5, Nucleotide-binding oligomerization domain-containing protein 1; assay: SAR analysis of compounds that inhibit NOD1 - Set 3. [Related pubchem assays (depositor defined):AID1566, AID1575, AID1578, AID1849, AID1852, AID2333, AID2335, AID2466]; assay type: functional

T6 sequence (P01375 whole entry): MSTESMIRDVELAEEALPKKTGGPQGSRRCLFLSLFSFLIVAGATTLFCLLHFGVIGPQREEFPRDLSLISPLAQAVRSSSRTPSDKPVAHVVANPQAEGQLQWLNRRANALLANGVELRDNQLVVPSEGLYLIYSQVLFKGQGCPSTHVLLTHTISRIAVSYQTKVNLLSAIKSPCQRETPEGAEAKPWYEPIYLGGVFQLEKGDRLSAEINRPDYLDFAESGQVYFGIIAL
T1 sequence (Q9HC97 whole entry): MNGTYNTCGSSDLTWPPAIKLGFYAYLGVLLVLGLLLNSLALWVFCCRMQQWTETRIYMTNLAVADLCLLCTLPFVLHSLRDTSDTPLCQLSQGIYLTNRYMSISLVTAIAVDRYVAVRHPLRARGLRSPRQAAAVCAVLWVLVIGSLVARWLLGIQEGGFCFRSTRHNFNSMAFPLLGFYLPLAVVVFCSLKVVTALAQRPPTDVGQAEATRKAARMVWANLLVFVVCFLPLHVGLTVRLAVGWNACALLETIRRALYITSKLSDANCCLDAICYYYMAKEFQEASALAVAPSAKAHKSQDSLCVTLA
Sphingosine 1-phosphate receptor 2, sequence (O95136 whole entry, the tested form may be a part): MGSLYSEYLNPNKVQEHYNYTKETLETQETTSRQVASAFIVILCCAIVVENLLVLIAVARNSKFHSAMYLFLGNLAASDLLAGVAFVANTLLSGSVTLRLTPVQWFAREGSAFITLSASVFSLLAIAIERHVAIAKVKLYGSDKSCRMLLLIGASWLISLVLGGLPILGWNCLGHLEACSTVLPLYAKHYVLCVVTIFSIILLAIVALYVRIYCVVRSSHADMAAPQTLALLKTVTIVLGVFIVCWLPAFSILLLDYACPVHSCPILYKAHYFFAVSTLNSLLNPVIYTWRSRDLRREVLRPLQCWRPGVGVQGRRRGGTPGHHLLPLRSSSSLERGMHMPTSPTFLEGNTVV
Tyrosine-protein phosphatase non-receptor type 12, sequence (Q05209 whole entry): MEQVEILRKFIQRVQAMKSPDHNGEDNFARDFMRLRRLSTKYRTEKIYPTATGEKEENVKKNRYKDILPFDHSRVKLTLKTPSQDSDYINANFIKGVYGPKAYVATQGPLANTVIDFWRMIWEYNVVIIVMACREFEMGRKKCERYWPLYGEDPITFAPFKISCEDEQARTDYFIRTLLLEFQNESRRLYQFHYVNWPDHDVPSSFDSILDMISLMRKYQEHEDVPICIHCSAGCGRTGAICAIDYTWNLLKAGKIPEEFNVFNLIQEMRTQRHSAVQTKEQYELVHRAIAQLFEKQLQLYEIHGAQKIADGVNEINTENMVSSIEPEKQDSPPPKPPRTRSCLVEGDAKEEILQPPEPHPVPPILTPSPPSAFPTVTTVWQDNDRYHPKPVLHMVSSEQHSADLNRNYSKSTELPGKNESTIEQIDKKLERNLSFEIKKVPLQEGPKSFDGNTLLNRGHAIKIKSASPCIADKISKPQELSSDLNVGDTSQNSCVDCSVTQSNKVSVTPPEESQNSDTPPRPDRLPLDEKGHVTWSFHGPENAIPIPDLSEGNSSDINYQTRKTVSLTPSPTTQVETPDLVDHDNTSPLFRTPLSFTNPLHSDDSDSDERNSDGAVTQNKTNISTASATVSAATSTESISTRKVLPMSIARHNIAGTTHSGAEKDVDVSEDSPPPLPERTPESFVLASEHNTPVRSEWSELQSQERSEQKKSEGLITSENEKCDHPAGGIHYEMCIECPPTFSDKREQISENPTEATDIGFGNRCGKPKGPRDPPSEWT
Disintegrin and metalloproteinase domain-containing protein 17, sequence (P78536 whole entry, the tested form may be a part): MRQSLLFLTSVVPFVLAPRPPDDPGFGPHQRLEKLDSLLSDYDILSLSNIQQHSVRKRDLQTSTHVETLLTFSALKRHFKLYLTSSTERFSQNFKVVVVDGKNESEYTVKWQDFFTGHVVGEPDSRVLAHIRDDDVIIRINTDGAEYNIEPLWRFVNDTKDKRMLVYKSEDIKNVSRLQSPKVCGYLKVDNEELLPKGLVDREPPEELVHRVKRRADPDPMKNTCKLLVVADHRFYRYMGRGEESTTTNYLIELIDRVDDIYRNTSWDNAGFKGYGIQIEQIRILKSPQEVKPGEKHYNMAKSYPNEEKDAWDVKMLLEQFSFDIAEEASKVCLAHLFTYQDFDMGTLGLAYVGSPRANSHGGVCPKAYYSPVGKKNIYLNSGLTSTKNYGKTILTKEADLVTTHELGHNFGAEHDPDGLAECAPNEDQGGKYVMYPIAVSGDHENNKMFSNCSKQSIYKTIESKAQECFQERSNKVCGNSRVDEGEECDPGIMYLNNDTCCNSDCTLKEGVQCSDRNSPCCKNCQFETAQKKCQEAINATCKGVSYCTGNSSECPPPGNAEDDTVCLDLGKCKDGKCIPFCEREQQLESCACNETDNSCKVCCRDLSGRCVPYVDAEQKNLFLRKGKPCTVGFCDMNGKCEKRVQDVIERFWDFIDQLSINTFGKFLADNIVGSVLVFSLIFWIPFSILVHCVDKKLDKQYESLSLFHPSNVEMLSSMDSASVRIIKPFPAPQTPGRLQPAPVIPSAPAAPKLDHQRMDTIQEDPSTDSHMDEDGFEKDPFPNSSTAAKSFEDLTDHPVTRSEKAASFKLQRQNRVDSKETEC
Cytochrome P450 3A4, sequence (P08684 whole entry): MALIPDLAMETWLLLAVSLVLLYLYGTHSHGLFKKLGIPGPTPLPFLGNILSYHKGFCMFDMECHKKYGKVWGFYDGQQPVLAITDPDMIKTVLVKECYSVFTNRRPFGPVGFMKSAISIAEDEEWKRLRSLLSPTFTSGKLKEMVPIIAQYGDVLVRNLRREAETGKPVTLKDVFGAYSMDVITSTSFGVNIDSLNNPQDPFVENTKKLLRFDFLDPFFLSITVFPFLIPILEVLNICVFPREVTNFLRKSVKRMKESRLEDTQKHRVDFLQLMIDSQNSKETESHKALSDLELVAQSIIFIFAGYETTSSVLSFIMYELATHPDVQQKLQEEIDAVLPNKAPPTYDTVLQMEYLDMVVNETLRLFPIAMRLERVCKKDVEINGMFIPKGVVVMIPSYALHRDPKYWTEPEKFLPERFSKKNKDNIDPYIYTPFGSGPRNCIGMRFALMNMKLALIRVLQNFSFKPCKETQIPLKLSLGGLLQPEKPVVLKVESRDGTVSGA
CAAX prenyl protease 1, sequence (P47154 whole entry): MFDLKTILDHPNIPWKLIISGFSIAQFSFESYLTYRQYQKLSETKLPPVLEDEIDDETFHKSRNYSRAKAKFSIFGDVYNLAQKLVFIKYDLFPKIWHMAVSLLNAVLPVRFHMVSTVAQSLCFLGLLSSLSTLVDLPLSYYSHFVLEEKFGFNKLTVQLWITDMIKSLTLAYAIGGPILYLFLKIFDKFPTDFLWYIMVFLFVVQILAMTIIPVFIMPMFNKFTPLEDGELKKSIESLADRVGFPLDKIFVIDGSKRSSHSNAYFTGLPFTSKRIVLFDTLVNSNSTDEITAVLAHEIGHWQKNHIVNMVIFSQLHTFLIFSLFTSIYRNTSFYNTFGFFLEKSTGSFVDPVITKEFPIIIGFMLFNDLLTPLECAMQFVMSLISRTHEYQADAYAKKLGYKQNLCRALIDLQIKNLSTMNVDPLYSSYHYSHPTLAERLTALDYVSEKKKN
Nucleotide-binding oligomerization domain-containing protein 2, sequence (Q9HC29 whole entry, the tested form may be a part): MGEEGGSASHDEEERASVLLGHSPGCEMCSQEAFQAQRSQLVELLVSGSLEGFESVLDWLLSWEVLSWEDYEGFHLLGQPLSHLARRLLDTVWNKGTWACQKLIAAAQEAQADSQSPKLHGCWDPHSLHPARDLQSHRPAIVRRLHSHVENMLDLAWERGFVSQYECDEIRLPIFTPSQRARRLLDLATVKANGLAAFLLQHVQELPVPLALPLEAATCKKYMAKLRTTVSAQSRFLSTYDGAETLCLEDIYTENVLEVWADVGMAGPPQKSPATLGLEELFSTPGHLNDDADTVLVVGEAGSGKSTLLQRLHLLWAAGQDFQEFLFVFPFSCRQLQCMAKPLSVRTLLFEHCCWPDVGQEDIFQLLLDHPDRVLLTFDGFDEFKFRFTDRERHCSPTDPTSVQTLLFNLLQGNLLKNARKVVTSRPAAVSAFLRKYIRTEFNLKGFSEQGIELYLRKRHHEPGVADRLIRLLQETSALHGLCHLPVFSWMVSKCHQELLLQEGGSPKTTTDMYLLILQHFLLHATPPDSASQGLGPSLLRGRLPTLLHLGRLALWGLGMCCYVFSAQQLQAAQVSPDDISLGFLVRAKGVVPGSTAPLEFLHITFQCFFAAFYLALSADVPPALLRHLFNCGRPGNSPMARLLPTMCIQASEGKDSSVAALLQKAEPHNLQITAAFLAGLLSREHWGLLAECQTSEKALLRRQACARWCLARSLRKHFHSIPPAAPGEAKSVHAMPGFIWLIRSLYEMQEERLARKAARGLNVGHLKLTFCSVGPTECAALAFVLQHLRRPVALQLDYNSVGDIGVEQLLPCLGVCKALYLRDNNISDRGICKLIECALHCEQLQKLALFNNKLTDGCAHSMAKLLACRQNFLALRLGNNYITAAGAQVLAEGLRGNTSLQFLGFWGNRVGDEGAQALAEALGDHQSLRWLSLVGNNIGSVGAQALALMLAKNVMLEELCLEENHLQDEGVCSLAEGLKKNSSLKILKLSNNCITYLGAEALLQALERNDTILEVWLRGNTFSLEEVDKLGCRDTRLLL
G-protein coupled receptor 55, sequence (Q9Y2T6 whole entry): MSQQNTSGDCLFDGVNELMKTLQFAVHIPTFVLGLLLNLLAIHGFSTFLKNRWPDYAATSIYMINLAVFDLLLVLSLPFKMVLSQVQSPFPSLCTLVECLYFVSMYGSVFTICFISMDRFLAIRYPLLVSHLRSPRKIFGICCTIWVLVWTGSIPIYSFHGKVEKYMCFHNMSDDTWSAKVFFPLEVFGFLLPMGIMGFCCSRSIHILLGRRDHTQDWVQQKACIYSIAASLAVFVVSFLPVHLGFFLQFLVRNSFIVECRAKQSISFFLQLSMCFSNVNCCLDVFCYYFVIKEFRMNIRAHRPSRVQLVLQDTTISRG

## COc1cc(F)cc(-c2ccc3c(c2)c(-c2cccs2)c(-c2cc(OC)cc(OC)c2)n3C)c1
[1]
  AC50: 16.5 µM (active)
[2]
  AC50: 26.5 µM (active)

## NC(=O)[C@@H]1CC2(CC(c3cccc(NC(=O)CC(c4ccccc4)c4ccccc4)c3)=NO2)CN1C(=O)c1ccc(Cl)cc1 (stereo partly drawn)
CAAX prenyl protease 1
  AC50: 5.27 µM (active)
[3]
  IC50: > 7.72 µM (active)
CAAX prenyl protease 2
  AC50: 41.7 µM (active)
[4]
  IC50: > 69.5 µM (inactive)
[5]
  EC50: 0.619 µM (active)
[6]
  EC50: > 60 µM (not active)

## Cc1ccc(S(=O)(=O)Nc2ccc3c(c2)CC(=O)N([C@H](C)CO)C[C@@H](C)[C@H](CN(C)S(=O)(=O)c2ccccc2)O3)cc1
[7]
  AC50: > 60 µM (inactive)

## CC[C@@]1([N+](=O)[O-])C[C@H]2C=C[C@@H]1C2.CC[C@@]1([N+](=O)[O-])C[C@H]2C=C[C@@H]1C2
Cytochrome P450 2D6
  AC50: inconclusive
Cytochrome P450 2C19
  AC50: inconclusive

## CCc1ccc(/C=C2\SC(=S)N(CCCC(=O)Nc3ccc(C(=O)O)cc3)C2=O)cc1
[8]
  IC50: 0.636 µM (active)
[9]
  EC50: 7.29 µM (active)
[10]
  IC50: 76.8 µM (active)
Streptococcus
  EC50: > 150 µM (not active)
[11]
  IC50: < 0.5 µM (active)
[12]
  EC50: 3.67 µM (active)
[13]
  EC50: 0.248 µM (active)
Streptokinase A
  EC50: > 150 µM (not active)
[14]
  EC50: 7.61 µM (active)
[15]
  IC50: 0.581 µM (active)
[16]
  IC50: 9.28 µM (active)
[17]
  IC50: 17.3 µM (inactive)

## O=C(Nc1ccc(S(=O)(=O)N2CCOCC2)cc1)c1ccc(CN2CCc3ccccc3C2)cc1
[18]
  IC50: 3.77 µM (active)
[19]
  IC50: 0.347 µM (active)
Cytochrome P450 3A4
  AC50: inconclusive
HEK293 [20]
  IC50: 5.46 µM (active)
Tumor necrosis factor [21]
  IC50: 0.627 µM (active)
[22]
  IC50: > 80 µM (inactive)

## Nc1nc2ccccc2n1S(=O)(=O)c1ccc(Cl)c(Cl)c1
[23]
  IC50: > 20 µM (inactive)
Tumor necrosis factor [24]
  IC50: > 20 µM (inactive)
HEK293 [25]
  IC50: > 20 µM (inactive)
[26]
  IC50: 0.529 µM (active)
